The source of these data is publication PMC10451034, “Highly Efficient Photosensitizers with Molecular Vibrational Torsion for Cancer Photodynamic Therapy” (ACS Central Science, 2023).

Structures are written as SMILES.

Series [1] has as its system HepG2 cells. As to the kind of experiment: Intracellular ROS detection with DCFH-DA. It is filed as cell-based, human. The following applies: after 660 nm light irradiation. On the procedure:
In order to explore the mechanism of cellular structure destruction caused by QTCy7-R, intracellular ROS generation was investigated by DCFH-DA reagent. […] Ulteriorly, cell destruction caused by ROS generation was assessed by Calcein-AM/propidium iodide (PI)-mediated fluorescence imaging (Figures 9c and S21). […]
medium (DMEM, Invitrogen) with 10 % fetal bovine serum (Invitrogen) and 1% penicillinstreptomycin. All cells were treated at 37 °C with the humidified atmosphere containing 5% CO2 and 95% air. Before conducting cell imaging experiments, all types of cells were maintained on 35 mm glass-bottom cell dishes for 24 h.
(§1) Confocal fluorescence imaging
After culturing the cells in 35 mm glass-bottom cell dishes for 24 h, the DMEM medium was replaced with saline, then QTCy7-R was added (3 μM). The confocal fluorescence imaging was carried out and images were recorded. (λex = 640 nm, λem = 680-780 nm). […] After fluorescence imaging, colocalization coefficient was analyzed and recorded. […]
(§2) fluorescence signal (JC-1 monomer). […]
(§3) 2,7-dichlorofluorescein diacetate (DCFH-DA) Detection Kit was chosen to validate the intracellular ROS generation. […] Then the cells were exposed under NIR irradiation, after which the confocal fluorescence imaging was performed . […]

A short description of series [2]: Triplet lifetime by laser flash photolysis. It is filed as physicochemical. The following applies: 5 μM in deaerated dichloromethane, λex = 610 nm. From the text: To probe the mechanism of the observed phenomenon and further validate our hypothesis, ultrafast excited-state dynamic behaviors were implemented by using femtosecond transient absorption spectroscopy (fs-TA) (Figures 3a and S4a–c). In order to obtain the complete process of excited states, a 350 nm laser was chosen as a pump to populate the high singlet excited states (Sn) from the ground state (S0). […] With the growth of delay time, the ESA of S1 gradually decayed (τ = 7.65 ps); meanwhile, beyond our expectation, accompanied by a particularly noticeable peak at ca. 583 nm increasing promptly, this new emerging ESA peak reached its maximum within about 21.98 ps. Similar phenomena were found in the transient spectra of the other three compounds (Figures S4d–f). However, for the control TCy7, there was no obvious formation of another ESA peak in transient spectra (Figure S5). […] Furthermore, the rate of X state formation was calculated to be 4.54 × 10^10 s^–1 for QTCy7-Ac based on the rise time (kX = 1/τX,rise), which was close to the order of magnitude of the intramolecular distorted vibration behavior. […] Meanwhile, the triplet lifetime of this series of molecules was evaluated and inspected for further applications (Figures 3d and S4g–i). […]
Photoexcited singlet oxygen production was detected by employed 1,3-diphenylisobenzofuran (DPBF) as the indicator. The absorbance of DPBF at 415 nm was regulated to about 1.0 in DCM. And the samples were irradiated with 660 nm light for various times, then the absorption spectra of different time nodes were recorded.
The singlet oxygen quantum yield (ΦΔ) was calculated by the following equation:
Where “Φ” represent the singlet oxygen quantum yield , “sam” and “std” represent QTCy7-R and MB, respectively. “m” is the slope of the absorbance of DPBF at 415 nm with time, F=1–10-O.D. (O.D. is the absorbance of samples at 660 nm). […]
The triplet life of QTCy7-R was measured by LP980 laser flash photolysis spectrometer (Edinburgh Instruments Ltd.) in combination with a Nd:YAG laser (Surelite I-10, Continuum Electro-Optics, Inc.). […]

Series [3] deals with HepG2 cells. As to the kind of experiment: Mitochondrial membrane potential detection by JC-1 staining. Type of series: cell-based, human. As to conditions: 660 nm irradiation (6 J/cm^2). On the procedure:
Next, in order to verify the disruption effect on cell structural integrity of the ^1O2 generation by QTCy7-R under irradiation, JC-1 staining imaging was conducted to monitor the mitochondria membrane potential. […] On the other hand, cell membrane damage caused by the photooxidation of QTCy7-Ac and QTCy7-CHO could be confirmed by a visualized observation. […] Furthermore, the lactate dehydrogenase (LDH) content in cell culture medium was measured to characterize the extent of cell membrane damage.[49] […]
medium (DMEM, Invitrogen) with 10 % fetal bovine serum (Invitrogen) and 1% penicillinstreptomycin. All cells were treated at 37 °C with the humidified atmosphere containing 5% CO2 and 95% air. […]
as §1
After culturing the cells in 35 mm glass-bottom cell dishes for 24 h, the DMEM medium was replaced with saline, then QTCy7-R was added (3 μM). The confocal fluorescence imaging was carried out and images were recorded. […] After fluorescence imaging, colocalization coefficient was analyzed and recorded. […]
as §2, §3

For `CCOC(=O)C1=C/C(=C\C=C2/Sc3ccccc3N2CC)C(=O)C(/C=C/c2sc3ccccc3[n+]2CC)=C1` [QTCy7-Ac], the “intracellular ROS generation (DCFH-DA fluorescence)” value in the series with HepG2 cells [1] is reported as “stronger fluorescence signal”.

On to `CCN1/C(=C/C=C2\C=C(C=O)C=C(/C=C/c3sc4ccccc4[n+]3CC)C2=O)Sc2ccccc21` [QTCy7-CHO], for which the triplet lifetime entry in series [2] was “about 2 μs”. `CCN1/C(=C/C=C2\C=C(C)C=C(/C=C/c3sc4ccccc4[n+]3CC)C2=O)Sc2ccccc21` [QTCy7-Me]: the triplet lifetime result in series [2] is listed as “about 12 μs”. The “mitochondrial membrane potential change” value in the series on HepG2 cells [3] was “severe mitochondrial depolarization”. Regarding `CCN1/C(=C/C=C2\C=C(c3ccccc3)C=C(/C=C/c3sc4ccccc4[n+]3CC)C2=O)Sc2ccccc21` [QTCy7-Ph], the triplet lifetime result in series [2] was “about 12 μs”. Moreover, the “mitochondrial membrane potential change” value in the series with HepG2 cells [3] is “severe mitochondrial depolarization”. Further, the “intracellular ROS generation (DCFH-DA fluorescence)” value in the series with HepG2 cells [1] is “stronger fluorescence signal”.
